Data: US11820726B2, “Motuporamine derivatives as antimicrobial agents and antibiotic enhancers against resistant gram-negative bacteria” (University of Central Florida Research Foundation, Inc., priority 2017, dated 2023)

Experiments:
[1] = system: P. aeruginosa PAO1; assay: MIC of doxycycline against P. aeruginosa PAO1; type: cell-based; details: Pseudomonas aeruginosa
Description: Antibiotics: All the antibiotics were purchased from Sigma-Aldrich except for doxycycline which was purchased from TCI Europe (Zwijndrecht, Belgium). All antibiotics were dissolved in water. The susceptibility of bacterial strains to antibiotics and compounds was determined in microplates by the standard broth dilution method, according to the recommendations of the Comité de l'AntibioGramme de la Société Française de Microbiologie (CA-SFM).^[36] Briefly, MICs were determined with an inoculum of 10^5 CFU in of MH broth (200 μL) containing twofold serial dilutions of each drug. […] Measurements were repeated in triplicate.

[2] = system: E. aerogenes EA289; assay: Nitrocefin hydrolysis assay (outer membrane permeabilization); type: cell-based, Enterobacter aerogenes; details: 5b even at 3.9 μM, compared to spermine-treated or untreated control
Description: Nitrocefin hydrolysis assay: Outer membrane permeabilization was measured by using nitrocefin, a chromogenic substrate of periplasmic β-lactamase. MH broth (10 mL) was inoculated with of an overnight culture (0.1 mL) of EA289 and grown at 37° C. to OD600=0.5. The remaining steps were performed at room temperature. Cells were recovered by centrifugation (3600 G, 20 min) and washed once with potassium phosphate buffer (PPB) (20 mM, pH 7.2) containing MgCl2 (1 mM). After another centrifugation, the pellet was resuspended in PPB (100 μL) and adjusted to OD600=0.5. Then, either Polymyxin B (positive control; Sigma-Aldrich) or 5b (50 μL) was added to the cell suspension (100 gm/L) to final concentrations of 0.98-500 μM “2.5, 15, 62.5, and 125 μM”. Nitrocefin (50 μL, 50 μg/mL; Oxoid) was added, and its hydrolysis was monitored spectrophotometrically by measuring the increase in absorbance at 490 nm. Assays were performed in 96-well plates with an M200 Pro spectrophotometer (Tecan).

[3] = system: S. aureus RN4220, P. aeruginosa PAO1 and E. coli ANSI; details: cited from earlier work; for antibacterial activity: unsubstituted diamines; for activity against S. aureus RN4220, P. aeruginosa PAO1 and E. coli ANSI: higher polyamines
[4] = system: bacterial membrane; details: cited from earlier work
[5] = system: Staphylococcus aureus ATCC25923; assay: ATP release (membrane disruption) in S. aureus; type: cell-based; details: ATP release for 1 min, 100 μg/mL
Description: Measurement of ATP efflux: Squalamine were prepared in doubly distilled water at different concentrations. A suspension of growing S. aureus or E. aerogenes (EA289) in MH broth was incubated at 37° C. The suspension (90 μL) was added to squalamine solution (10 μL, synthesized in lab according to reported procedures), and the mixture was vortexed for Is. Luciferin-luciferase reagent (Yelen, France; 50 μL) was immediately added, and luminescence was quantified with an Infinite M200 microplate reader (Tecan) for 5 s. ATP concentration was quantified by addition of a known amount of ATP (1 μM).

[6] = system: E. aerogenes EA289, P. aeruginosa PAO1, and K. pneumoniae KPC2-ST258; assay: Determination of antibiotic MIC in the presence of compounds (restoring enhancer concentration); type: cell-based
Description: Determination of antibiotic MIC in the presence of compounds: Briefly, restoring enhancer concentrations were determined with an inoculum of 5×10^5 colony forming unit (CFU) in MH broth (200 μL) containing twofold serial dilutions of each derivative and antibiotic (chloramphenicol, doxycycline, cefepime, or erythromycin; 2 μg/mL). […] Measurements were repeated in triplicate.

## C[C@H]1c2cccc(O)c2C(=O)C2=C(O)[C@]3(O)C(=O)C(C(N)=O)=C(O)[C@@H](N(C)C)[C@@H]3[C@@H](O)[C@@H]21 [doxycycline]
[1]
  MIC: 16 µg/mL

## polymyxin-B
[2]
  rate of nitrocefin hydrolysis: increase in nitrocefin hydrolysis

## NCCCCN [putrescine]
[3]
  antibacterial activity: no antibacterial activity
[4]
  membrane rupture: did not cause membrane rupture

## NCCCNCCCCNCCCN [spermine]
[5]
  ATP release (disruption of the bacterial membrane): no significant effect
[3]
  activity against S. aureus RN4220, P. aeruginosa PAO1 and E. coli ANSI: inactive

## CC(C)[C@@H](CC[C@@H](C)[C@H]1CC[C@H]2[C@@H]3[C@H](O)C[C@H]4C[C@@H](NCCCNCCCCN)CC[C@]4(C)[C@H]3CC[C@]12C)OS(=O)(=O)O [squalamine]
[5]
  ATP release (disruption of the bacterial membrane): dramatic disruption of the bacterial membrane

## NCCCCNCCCN [spermidine]
[3]
  activity against S. aureus RN4220, P. aeruginosa PAO1 and E. coli ANSI: inactive

## S=C(NCCCNCCCCCNCCCNC(=S)NCC(c1ccccc1)c1ccccc1)NCC(c1ccccc1)c1ccccc1 [1,13-bis (((2,2-diphenyl)-1-ethyl)thioureido)-4,10-diazatridecane]
[4]
  cytoplasmic membrane depolarization: depolarize the cytoplasmic membrane

## NCCCCCN [cadaverine]
[3]
  antibacterial activity: no antibacterial activity
[4]
  membrane rupture: did not cause membrane rupture

## Cl.Cl.NCCCCNCc1c2ccccc2cc2ccccc12 [7b]
[6]; antibiotic 2 μg/mL, PAO1, EA289 and KPC2-ST258
  synergy with chloramphenicol and erythromycin: weak or no activity
[6]; doxycycline 2 μg/mL, derivative even at 40 μM
  restoration of doxycycline activity: no improvement
